Numbered stars: 1 amine (or outer) side, 2 acyl side, 3 side chain; on linkers, the order of the positions; unused ones are H or OH. Bridge positions count the residues as written; N and C are the ends. Square brackets hold non-standard residues; d marks the D form. Peptide text beside a SMILES is read from it. * marks the point of attachment. C20 diacid = O=C(O)CCCCCCCCCCCCCCCCCCC(=O)*; γGlu = O=C(O)[C@H](CCC(=O)[*:2])N[*:1]; Hyp = O=C(O)[C@@H]1C[C@@H](O)CN1

One assay addresses T1, hAMY3 receptor (Homo sapiens, UniProt O60896+P30988).
T1 sequence (P30988 25-474): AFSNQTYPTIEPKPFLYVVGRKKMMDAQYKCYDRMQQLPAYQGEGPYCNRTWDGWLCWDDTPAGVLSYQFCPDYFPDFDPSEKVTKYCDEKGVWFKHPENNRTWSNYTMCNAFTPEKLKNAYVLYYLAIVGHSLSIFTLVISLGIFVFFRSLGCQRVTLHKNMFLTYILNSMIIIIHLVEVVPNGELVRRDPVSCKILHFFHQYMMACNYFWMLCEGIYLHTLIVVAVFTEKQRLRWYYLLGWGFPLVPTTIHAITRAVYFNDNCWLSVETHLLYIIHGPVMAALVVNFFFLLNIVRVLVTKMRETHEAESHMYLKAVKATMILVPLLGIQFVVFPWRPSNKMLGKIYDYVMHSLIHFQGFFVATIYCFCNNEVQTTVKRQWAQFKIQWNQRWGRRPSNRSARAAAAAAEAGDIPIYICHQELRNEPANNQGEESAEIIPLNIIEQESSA
T1 sequence (O60896 24-148 partner): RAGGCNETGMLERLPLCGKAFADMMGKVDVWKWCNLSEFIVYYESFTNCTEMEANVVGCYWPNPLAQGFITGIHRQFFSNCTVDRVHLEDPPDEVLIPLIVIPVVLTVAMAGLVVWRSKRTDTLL
In words: cAMP assay for in vitro receptor activation, hAMY3-R. The format is cell-based. The settings on record: cAMP assay, hAMY3 receptor; read-out: hAMY3R EC50. In outline: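 Thawed cells from a sub-cloned monoclonal hAMY3-overexpressing line are plated in DPBS containing 0.05% casein and 0.5 mM IBMX. Test compounds are added immediately at graded doses for 30 min at room temperature. Reagents for cAMP detection are then added, and TR-FRET is recorded after one hour.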
Background: cAMP levels reflect the balance of adenylyl cyclase and phosphodiesterase activity.

Another assay has as its target hAM1 receptor (Homo sapiens, UniProt O60895+Q16602). In words: cAMP assay for in vitro receptor activation, hAM1-R. The format is cell-based. The settings on record: cAMP assay, hAM1 receptor; read-out: hAM1R EC50. On the procedure:
General Protocols for cAMP Assays for Measuring In Vitro Receptor Activation
Cells stably overexpressing the hAM1 receptor were obtained from Ogeda (now Astellas Pharma), sub-cloned and a monoclonal cell-line with an appropriate assay-window was expanded, aliquoted and frozen. An aliquot was thawed and plated in DPBS with 0.05% casein and 0.5 mM IBMX as 8000 cells/well in a 384-well format.

Chain of hAM1 receptor (Q16602 23-461): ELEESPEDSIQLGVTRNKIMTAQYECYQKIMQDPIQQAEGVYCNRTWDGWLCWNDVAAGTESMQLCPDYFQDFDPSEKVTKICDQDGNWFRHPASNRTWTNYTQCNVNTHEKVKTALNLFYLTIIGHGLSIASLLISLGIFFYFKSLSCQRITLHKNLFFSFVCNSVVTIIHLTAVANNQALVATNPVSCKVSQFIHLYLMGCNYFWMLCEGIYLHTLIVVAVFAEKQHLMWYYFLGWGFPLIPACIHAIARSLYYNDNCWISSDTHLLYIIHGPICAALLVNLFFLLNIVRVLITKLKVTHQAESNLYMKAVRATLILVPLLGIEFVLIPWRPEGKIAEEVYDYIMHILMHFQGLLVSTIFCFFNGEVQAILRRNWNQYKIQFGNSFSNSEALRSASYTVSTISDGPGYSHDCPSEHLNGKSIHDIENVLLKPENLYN
Chain of hAM1 receptor (O60895 43-175 partner): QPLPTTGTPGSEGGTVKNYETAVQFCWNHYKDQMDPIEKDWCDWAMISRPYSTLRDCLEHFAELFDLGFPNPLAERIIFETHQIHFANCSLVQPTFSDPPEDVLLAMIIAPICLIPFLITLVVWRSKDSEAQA

Turning to `CC[C@H](C)[C@H](NC(=O)[C@H](CCC(N)=O)NC(=O)[C@H](Cc1c[nH]cn1)NC(=O)[C@H](C)NC(=O)[C@H](CC(C)C)NC(=O)[C@H](CCCNC(=N)N)NC(=O)[C@H](CCC(N)=O)NC(=O)[C@@H](NC(=O)[C@@H](NC(=O)[C@@H]1CSSC[C@H](NC(=O)[C@@H](N)CCCCN)C(=O)N[C@@H](CC(N)=O)C(=O)N[C@@H]([C@@H](C)O)C(=O)N[C@@H](C)C(=O)N[C@@H]([C@@H](C)O)C(=O)N1)[C@@H](C)O)C(C)C)C(=O)N[C@@H](Cc1ccc(O)cc1)C(=O)N[C@@H](CCC(N)=O)C(=O)N[C@@H](Cc1ccccc1)C(=O)N[C@H](C(=O)N[C@@H](CC(=O)O)C(=O)N[C@@H](CCCCN)C(=O)N[C@@H](CC(=O)O)C(=O)N[C@@H](CCCCN)C(=O)N[C@@H](CC(=O)O)C(=O)N[C@@H](CC(N)=O)C(=O)N[C@H](C(=O)N[C@@H](C)C(=O)N1CCC[C@H]1C(=O)N[C@@H](CCCNC(=N)N)C(=O)N[C@H](C(=O)N[C@@H](CCC(=O)O)C(=O)N[C@H](C(=O)NCC(=O)N[C@@H](CO)C(=O)N[C@@H](CC(N)=O)C(=O)NCC(=O)N[C@@H](Cc1ccc(O)cc1)C(N)=O)C(C)C)[C@@H](C)O)C(C)C)[C@@H](C)O` [compound 102] (H-KCNTATCTVQRLAHQIYQFTDKDKDNVAPRTEVGSNGY-NH2; disulfide 2-7; N-terminus assumed), the EC50 is 0.018 nM on hAMY3 receptor and over 5000 nM on hAM1 receptor.
As for `CC[C@H](C)[C@H](NC(=O)[C@H](C)NC(=O)CNC(=O)[C@H](Cc1ccccc1)NC(=O)[C@H](CC(N)=O)NC(=O)[C@H](CC(N)=O)NC(=O)[C@H](CO)NC(=O)[C@H](CO)NC(=O)[C@H](Cc1c[nH]cn1)NC(=O)[C@@H](NC(=O)[C@H](CC(C)C)NC(=O)[C@H](Cc1ccccc1)NC(=O)[C@H](CC(N)=O)NC(=O)[C@H](C)NC(=O)[C@H](CC(C)C)NC(=O)[C@H](CCCNC(=N)N)NC(=O)[C@H](CCC(N)=O)NC(=O)[C@@H](NC(=O)[C@H](C)NC(=O)[C@@H]1CSSC[C@H](NC(=O)[C@@H](N)CCCCN)C(=O)N[C@@H](CC(N)=O)C(=O)N[C@@H]([C@@H](C)O)C(=O)N[C@@H](C)C(=O)N[C@@H]([C@@H](C)O)C(=O)N1)[C@@H](C)O)C(C)C)C(=O)N[C@@H](CC(C)C)C(=O)N1CCC[C@H]1C(=O)N[C@@H](CO)C(=O)N[C@H](C(=O)N[C@@H](CCCCN)C(=O)N[C@H](C(=O)NCC(=O)N1CCC[C@H]1C(=O)N[C@@H](CC(N)=O)C(=O)NCC(=O)N[C@@H](Cc1ccc(O)cc1)C(N)=O)[C@@H](C)CC)[C@@H](C)O` [compound 162] (H-KCNTATCATQRLANFLVHSSNNFGAILPSTKIGPNGY-NH2; disulfide 2-7; N-terminus assumed), the results for the EC50 at hAMY3 receptor and on hAM1 receptor were 0.051 nM and over 5000 nM, respectively.
As to `CC[C@H](C)[C@H](NC(=O)[C@H](CCC(N)=O)NC(=O)[C@H](CCC(=O)O)NC(=O)[C@H](C)NC(=O)[C@H](CC(C)C)NC(=O)[C@H](CCCNC(=N)N)NC(=O)[C@H](CCC(N)=O)NC(=O)[C@@H](NC(=O)[C@@H](NC(=O)[C@@H]1CSSC[C@H](NC(=O)[C@H](CCCCN)NC(=O)CC[C@H](NC(=O)CCCCCCCCCCCCCCCCCCC(=O)O)C(=O)O)C(=O)N[C@@H](CC(N)=O)C(=O)N[C@@H]([C@@H](C)O)C(=O)N[C@@H](C)C(=O)N[C@@H]([C@@H](C)O)C(=O)N1)[C@@H](C)O)C(C)C)C(=O)N[C@@H](Cc1ccc(O)cc1)C(=O)N[C@@H](CCC(N)=O)C(=O)N[C@@H](Cc1ccccc1)C(=O)N[C@H](C(=O)N[C@@H](CC(=O)O)C(=O)N[C@@H](CCCCN)C(=O)N[C@@H](CC(=O)O)C(=O)N[C@@H](CCCCN)C(=O)N[C@@H](CC(=O)O)C(=O)N[C@@H](CC(N)=O)C(=O)N[C@H](C(=O)N[C@@H](C)C(=O)N1CCC[C@H]1C(=O)N1CCC[C@H]1C(=O)N[C@H](C(=O)N[C@@H](C)C(=O)N[C@H](C(=O)NCC(=O)N[C@@H](CO)C(=O)N[C@@H](CC(N)=O)C(=O)NCC(=O)N1C[C@H](O)C[C@H]1C(N)=O)C(C)C)[C@@H](C)O)C(C)C)[C@@H](C)O` [compound 63] ({C20 diacid-γGlu}-KCNTATCTVQRLAEQIYQFTDKDKDNVAPPTAVGSNG[Hyp]-NH2; disulfide 2-7), the EC50 at hAMY3 receptor was 0.012 nM; on hAM1 receptor, over 5000 nM.
As for `CC[C@H](C)[C@H](NC(=O)[C@H](CCC(N)=O)NC(=O)[C@H](CCC(=O)O)NC(=O)[C@H](C)NC(=O)[C@H](CC(C)C)NC(=O)[C@H](CCCNC(=N)N)NC(=O)[C@H](CCC(N)=O)NC(=O)[C@@H](NC(=O)[C@@H](NC(=O)[C@@H]1CSSC[C@H](NC(=O)[C@H](CCCCN)NC(=O)CC[C@H](NC(=O)CCCCCCCCCCCCCCCCCCC(=O)O)C(=O)O)C(=O)N[C@@H](CC(N)=O)C(=O)N[C@@H]([C@@H](C)O)C(=O)N[C@@H](C)C(=O)N[C@@H]([C@@H](C)O)C(=O)N1)[C@@H](C)O)C(C)C)C(=O)N[C@@H](Cc1ccc(O)cc1)C(=O)N[C@@H](CCC(N)=O)C(=O)N[C@@H](Cc1ccccc1)C(=O)N[C@H](C(=O)N[C@@H](C)C(=O)N[C@@H](CCCCN)C(=O)N[C@@H](CC(=O)O)C(=O)N[C@@H](CCCCN)C(=O)N[C@@H](CC(=O)O)C(=O)N[C@@H](CC(N)=O)C(=O)N[C@H](C(=O)N[C@@H](C)C(=O)N1CCC[C@H]1C(=O)N1CCC[C@H]1C(=O)N[C@H](C(=O)N[C@@H](CC(N)=O)C(=O)N[C@H](C(=O)NCC(=O)N[C@@H](CO)C(=O)N[C@@H](CC(N)=O)C(=O)NCC(=O)N1C[C@H](O)C[C@H]1C(N)=O)C(C)C)[C@@H](C)O)C(C)C)[C@@H](C)O` [compound 106] ({C20 diacid-γGlu}-KCNTATCTVQRLAEQIYQFTAKDKDNVAPPTNVGSNG[Hyp]-NH2; disulfide 2-7), the EC50 is 0.018 nM at hAMY3 receptor and over 5000 nM at hAM1 receptor.
For the compound `CC[C@H](C)[C@H](NC(=O)[C@H](CCC(N)=O)NC(=O)[C@H](CCC(=O)O)NC(=O)[C@H](C)NC(=O)[C@H](CC(C)C)NC(=O)[C@H](CCCNC(=N)N)NC(=O)[C@H](CCC(N)=O)NC(=O)[C@@H](NC(=O)[C@@H](NC(=O)[C@@H]1CSSC[C@H](NC(=O)[C@@H](N)CCCCN)C(=O)N[C@@H](CC(N)=O)C(=O)N[C@@H]([C@@H](C)O)C(=O)N[C@@H](C)C(=O)N[C@@H]([C@@H](C)O)C(=O)N1)[C@@H](C)O)C(C)C)C(=O)N[C@@H](Cc1ccc(O)cc1)C(=O)N[C@@H](CCC(N)=O)C(=O)N[C@@H](Cc1ccccc1)C(=O)N[C@H](C(=O)N[C@@H](CC(=O)O)C(=O)N[C@@H](CCCCN)C(=O)N[C@@H](CC(=O)O)C(=O)N[C@@H](CCCCN)C(=O)N[C@@H](CC(=O)O)C(=O)N[C@@H](CC(N)=O)C(=O)N[C@H](C(=O)N[C@@H](CO)C(=O)N1CCC[C@H]1C(=O)N1CCC[C@H]1C(=O)N[C@H](C(=O)N[C@@H](CC(N)=O)C(=O)N[C@H](C(=O)NCC(=O)N[C@@H](CO)C(=O)N[C@@H](CC(N)=O)C(=O)NCC(=O)N1C[C@H](O)C[C@H]1C(N)=O)C(C)C)[C@@H](C)O)C(C)C)[C@@H](C)O` [compound 66] (H-KCNTATCTVQRLAEQIYQFTDKDKDNVSPPTNVGSNG[Hyp]-NH2; disulfide 2-7), the values for the EC50 on hAMY3 receptor and at hAM1 receptor were 0.012 nM and over 5000 nM, respectively.

The term EC50 denotes the concentration needed to bring the measured effect to its halfway point.

These data come from patent publication US12139520B2 (priority 2020, dated 2024).
